US8741932B2, “Imidazopyridine derivatives” (Piramal Enterprises Limited, priority 2009, dated 2014)

Each molecule was assayed on IL-6 (assay: Human monocyte assay, LPS-stimulated IL-6). Details: Monocyte; human monocytes, 1 μg/ml LPS, 5 hours.
Type: cell-based
Description: The assay was designed as in the reference, Physiol.
Peripheral blood mononuclear cells (hPBMC) were harvested from human blood and suspended in RPMI 1640 culture medium containing 10% FCS, 100 U/mL penicillin and […] streptomycin (assay medium). Monocytes in the hPBMCs were counted using a Coulter Counter following which the cells were resuspended at 2×10^5 monocytes/mL. A cell suspension containing 2×10^4 monocytes was aliquoted per well of a 96-well plate. Subsequently, the hPBMCs were incubated for 4-5 hours at 37° C., 5% CO2 (During the incubation, the monocytes adhered to the bottom of 96-well plastic culture plate). Following the incubation, the non-adherent lymphocytes were washed with assay medium and the adherent monocytes re-fed with assay medium. After a 48-hour incubation period (37° C., 5% CO2), monocytes were pretreated with various concentrations of representative compounds of present invention (refer to table 6 and 7) (prepared in DMSO) or vehicle (0.5% DMSO) for 30 minutes and stimulated with 1 μg/ml LPS (Escherchia coli 0111:B4, Sigma Chemical Co., St. Louis, Mo.). The incubation was continued for 5 hours at 37° C., 5% CO2. Supernatants were harvested, assayed for IL-6 and TNF-α by ELISA as described by the manufacturer (BD Biosciences, USA). Dexamethasone (10 μM) was used as standard for this assay. […] Biological results for both IL-6 and TNFα are indicated in Table 6 and Table 7 respectively.

Row | IC50 [µM] | Compound
1 | 0.001 to 5 | CN(/N=C/c1cnc2ccc(-c3cccnc3)cn12)S(=O)(=O)c1ccc(F)c(F)c1F [Example 34, (E)-2,3,4-Trifluoro-N-methyl-N′-((6-(pyridin-3-yl)imidazo[1,2-a]pyridin-3-yl)methylene)benzenesulfonohydrazide]
2 | 0.001 to 5 | CN(/N=C/c1cnc2ccc(-c3cccnc3)cn12)S(=O)(=O)c1cc(F)c(Br)cc1F [Example 35, (E)-4-bromo-2,5-difluoro-N-methyl-N′-((6-(pyridin-3-yl)imidazo[1,2-a]pyridin-3-yl)methylene)benzenesulfonohydrazide]
3 | ≥ 5 | CN(/N=C/c1cnc2ccc(-c3cccnc3)cn12)S(=O)(=O)c1ccc(F)cc1Br [Example 36, (E)-2-bromo-4-fluoro-N-methyl-N′-((6-(pyridin-3-yl)imidazo[1,2-a]pyridin-3-yl)methylene)benzenesulfonohydrazide]
4 | 0.001 to 5 | CN(/N=C/c1cnc2ccc(-c3cccnc3)cn12)S(=O)(=O)c1cccc(Cl)c1 [Example 39, (E)-3-chloro-N-methyl-N′-((6-(pyridin-3-yl)imidazo[1,2-a]pyridin-3-yl)methylene)benzenesulfonohydrazide]
5 | 0.001 to 5 | CN(/N=C/c1cnc2ccc(-c3cccnc3)cn12)S(=O)(=O)c1ccc(C(F)(F)F)cc1Cl [Example 40, (E)-2-chloro-N-methyl-N′-((6-(pyridin-3-yl)imidazo[1,2-a]pyridin-3-yl)methylene)-4-(trifluoromethyl)benzenesulfonohydrazide]
6 | 0.001 to 5 | CN(/N=C/c1cnc2ccc(-c3cccnc3)cn12)S(=O)(=O)c1ccc(F)cc1Cl [Example 41, (E)-2-chloro-4-fluoro-N-methyl-N′-((6-(pyridin-3-yl)imidazo[1,2-a]pyridin-3-yl)methylene) benzenesulfonohydrazide]
7 | ≥ 5 | Cc1nc(S(=O)(=O)N(C)/N=C/c2cnc3ccc(-c4cccnc4)cn23)cn1C [Example 42, (E)-N, 1,2-trimethyl-N′-((6-(pyridin-3-yl)imidazo[1,2-a]pyridin-3-yl)methylene)-1H-imidazole-4-sulfonohydrazide]
8 | ≥ 5 | Cc1cc(S(=O)(=O)N(C)/N=C/c2cnc3ccc(-c4cccnc4)cn23)c(C)cc1Cl [Example 43, (E)-4-chloro-N, 2,5-trimethyl-N′-((6-(pyridin-3-yl)imidazo[1,2-a]pyridin-3-yl)methylene) benzenesulfonohydrazide]
9 | 0.001 to 5 | CN(/N=C/c1cnc2ccc(-c3cccnc3)cn12)S(=O)(=O)c1cc(F)ccc1F [Example 44, (E)-2,5-difluoro-N-methyl-N′-((6-(pyridin-3-yl)imidazo[1,2-a]pyridin-3-yl)methylene) benzenesulfonohydrazide]
10 | ≥ 5 | CN(/N=C/c1cnc2ccc(-c3cccnc3)cn12)S(=O)(=O)c1ccc(I)cc1 [Example 46, (E)-4-Iodo-N-methyl-N′-((6-(pyridin-3-yl)imidazo[1,2-a]pyridin-3-yl)methylene)benzenesulfonohydrazide]
11 | ≥ 5 | CN(/N=C/c1cnc2ccc(-c3cccnc3)cn12)S(=O)(=O)c1ccc(-c2cc(C(F)(F)F)ccc2F)cc1 [Example 47, (E)-2′-Fluoro-N-methyl-N′-((6-(pyridin-3-yl)imidazo[1,2-a]pyridin-3-yl)methylene)-5′-(trifluoromethyl)biphenyl-4-sulfonohydrazide]
12 | 0.001 to 5 | Cc1ccc(C)c(S(=O)(=O)N(C)/N=C/c2cnc3ccc(-c4cccnc4)cn23)c1 [Example 50, (E)-N, 2,5-trimethyl-N′-((6-(pyridin-3-yl)imidazo[1,2-a]pyridin-3-yl)methylene)benzenesulfonohydrazide]
13 | 0.001 to 5 | CN(/N=C/c1cnc2ccc(-c3cccnc3)cn12)S(=O)(=O)c1cc(Br)ccc1Br [Example 51, (E)-2,5-dibromo-N-methyl-N′-((6-(pyridin-3-yl)imidazo[1,2-a]pyridin-3-yl)methylene) benzenesulfonohydrazide]
